According to US7687501B2, “Pyridothienopyridazinone derivatives as mGluR1 antagonists” (Schering Corporation, priority 2005, dated 2010):
Where two headings read alike, the source gives them in different places.

Molecular target: T1, hmGluR1 receptor (Homo sapiens, UniProt Q13255)
T1 construct: expressed in transfected cells; host or cells: CHO
Assay: IC50 determination: intracellular calcium mobilization (FLIPR) upon Quisqualate stimulation in CHO cell line stably expressing hmGluR1
Assay type: cell-based
Conditions: CHO cells expressing hmGluR1, against Quisqualate 1 μM (EC80), compounds added 10 minutes before Quisqualate
Method: A CHO cell line stably expressing hmGluR1 receptor was established. One day prior to assay, cells were split in growth media at concentration of 50,000 cells/well in a volume of 100 μl and seeded into black clear-bottom 96-well plates. After two to six hours, when cells were well attached to the plate, growth medium was replaced with assay medium (100 μL) consisting of DMEM high glucose, supplemented with GPT (1 U/mL) and sodium pyruvate, 1 mM. Following overnight incubation, medium was discarded and cells were loaded for 2 hours with dye from the Calcium 3 Assay Reagent Kit (Molecular Devices, # R8033), prepared according to manufacturers' instructions. A 96-tip pipettor/fluorometric imaging plate reader (FLIPR 384; Molecular Devices) was used and intracellular calcium mobilization was measured by increases in fluorescence upon agonist Quisqualate stimulation following 6 sec-baseline measurement. Test compounds were added 10 minutes before Quisqualate. IC50 determinations for tested compounds were generated against Quisqualate 1 μM corresponding to EC80 value in a standard dose response curve.

T1 sequence (Q13255 19-1194): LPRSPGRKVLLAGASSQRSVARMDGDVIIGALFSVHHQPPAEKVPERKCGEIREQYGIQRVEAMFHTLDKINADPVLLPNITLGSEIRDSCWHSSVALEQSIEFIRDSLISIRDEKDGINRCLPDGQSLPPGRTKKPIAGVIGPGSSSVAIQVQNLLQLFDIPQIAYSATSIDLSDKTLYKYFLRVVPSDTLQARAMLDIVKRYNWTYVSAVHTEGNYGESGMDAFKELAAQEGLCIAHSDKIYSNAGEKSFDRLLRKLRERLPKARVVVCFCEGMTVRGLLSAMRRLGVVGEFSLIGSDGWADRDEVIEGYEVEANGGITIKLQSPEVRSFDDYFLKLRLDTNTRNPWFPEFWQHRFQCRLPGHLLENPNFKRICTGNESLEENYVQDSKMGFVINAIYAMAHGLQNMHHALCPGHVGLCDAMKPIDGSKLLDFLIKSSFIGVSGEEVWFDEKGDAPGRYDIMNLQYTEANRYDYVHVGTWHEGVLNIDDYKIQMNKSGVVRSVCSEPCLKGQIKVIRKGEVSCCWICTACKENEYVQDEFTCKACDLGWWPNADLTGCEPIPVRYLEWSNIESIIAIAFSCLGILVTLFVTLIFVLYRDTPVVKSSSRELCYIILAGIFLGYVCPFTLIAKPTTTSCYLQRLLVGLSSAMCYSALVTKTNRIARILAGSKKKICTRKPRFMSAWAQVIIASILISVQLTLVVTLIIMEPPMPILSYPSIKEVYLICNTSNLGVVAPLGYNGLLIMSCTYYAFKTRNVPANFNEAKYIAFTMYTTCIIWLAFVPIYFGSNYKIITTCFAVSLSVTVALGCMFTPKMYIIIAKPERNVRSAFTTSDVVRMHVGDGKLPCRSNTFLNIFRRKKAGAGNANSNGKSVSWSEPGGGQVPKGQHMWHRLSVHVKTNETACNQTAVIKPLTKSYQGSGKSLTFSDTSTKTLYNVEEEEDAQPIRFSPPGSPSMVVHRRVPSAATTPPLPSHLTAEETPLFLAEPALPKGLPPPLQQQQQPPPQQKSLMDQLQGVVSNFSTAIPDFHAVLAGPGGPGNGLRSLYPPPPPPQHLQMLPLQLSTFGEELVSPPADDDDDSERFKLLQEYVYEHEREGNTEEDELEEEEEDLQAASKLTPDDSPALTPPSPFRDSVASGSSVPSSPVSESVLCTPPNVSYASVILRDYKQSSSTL

| IC50 (read-out: mGluR1 IC50 rating) [µM] | IC50 (read-out: mGluR1 IC50) [µM] | Structure (SMILES) |
| --- | --- | --- |
| > 1 |  | Cc1ccc(-n2nc(C)c3c(sc4nccc(N(C)C)c43)c2=O)cc1 [Compound 13B] |
| 0.1 to 1 |  | O=c1c2sc3nccc(NC4CCC4)c3c2cnn1-c1ccc(Cl)cc1 [Compound 23J] |
| > 1 |  | COc1ccc(-n2nc(C)c3c(sc4nccc(N(C)C)c43)c2=O)cc1 [Compound 13D] |
| > 1 |  | Cc1n[nH]c(=O)c2sc3nccc(N(C)C)c3c12 [Compound 13A] |
| 0.1 to 1 |  | C#CCNc1ccnc2sc3c(=O)n(-c4ccc(OC)cc4)ncc3c12 [Compound 23M] |
| 0.1 to 1 |  | CCNc1ccnc2sc3c(=O)n(-c4ccc(OC)cc4)ncc3c12 [Compound 23O] |
| 0.1 to 1 |  | COc1ccc(-n2ncc3c(sc4ncnc(OC)c43)c2=O)cc1 [Compound 34B] |
| < 0.02 | 0.0128 | COc1ccnc2sc3c(=O)n(-c4ccc(C)cc4)ncc3c12 [Compound 21C] |
| 0.02 to 0.1 |  | COc1ccnc2sc3c(=O)n(-c4ccc(Cl)cc4)ncc3c12 [Compound 21A] |
| 0.1 to 1 |  | COc1ccc(-n2ncc3c(sc4nccc(NC5CC5)c43)c2=O)cc1 [Compound 23B] |
| < 0.02 | 0.0036 | Cc1ccc(-n2ncc3c(sc4nccc(N(C)C)c43)c2=O)cc1 [Compound 9A] |
| 0.02 to 0.1 |  | CNc1ccnc2sc3c(=O)n(-c4ccc(OC)cc4)ncc3c12 [Compound 23N] |
| < 0.02 |  | CNc1ccnc2sc3c(=O)n(-c4ccc(Cl)cc4)ncc3c12 [Compound 23C] |
| < 0.02 | 0.0137 | O=c1c2sc3nccc(NC4CC4)c3c2cnn1-c1ccc(Cl)cc1 [Compound 23A] |
| 0.1 to 1 |  | Cc1ccc(-n2ncc3c(sc4nccc(NCCO)c43)c2=O)cc1 [Compound 23H] |
| < 0.02 | 0.0029 | CN(C)c1ccnc2sc3c(=O)n(-c4ccc(Br)cc4)ncc3c12 [Compound 9D] |
| < 0.02 | 0.018 | CCNc1ccnc2sc3c(=O)n(-c4ccc(C)cc4)ncc3c12 [Compound 23R] |
| > 1 |  | COCCNc1ccnc2sc3c(=O)n(-c4ccc(OC)cc4)ncc3c12 [Compound 23E] |
| 0.02 to 0.1 |  | COc1ncnc2sc3c(=O)n(-c4ccc(Cl)cc4)ncc3c12 [Compound 34A] |

| IC50 (read-out: mGluR1 IC50 rating) [µM] | IC50 (read-out: mGluR1 IC50) [µM] | Structure (SMILES) |
| --- | --- | --- |
| 0.1 to 1 |  | COc1ccc(-n2ncc3c(sc4nccc(N5CCC5)c43)c2=O)cc1 [Compound 23L] |
| < 0.02 | 0.0185 | Cc1ccc(-n2ncc3c(sc4nccc(NC5CC5)c43)c2=O)cc1 [Compound 23G] |
| 0.1 to 1 |  | CNc1ncnc2sc3c(=O)n(-c4ccc(OC)cc4)ncc3c12 [Compound 35C] |
| < 0.02 | 0.0036 | COc1ccc(-n2ncc3c(sc4nccc(N(C)N)c43)c2=O)cc1 [Compound 23I] |
| 0.02 to 0.1 |  | COc1ccc(-n2ncc3c(sc4nccc(OC)c43)c2=O)cc1 [Compound 21B] |
| < 0.02 | 0.0043 | CN(C)c1ccnc2sc3c(=O)n(-c4ccc5scnc5c4)ncc3c12 [Compound 9E] |
| 0.02 to 0.1 |  | CNc1ccnc2sc3c(=O)n(-c4ccc(C)cc4)ncc3c12 [Compound 23Q] |
| > 1 |  | Cc1nn(C2CCCCC2)c(=O)c2sc3nccc(N(C)C)c3c12 [Compound 13C] |
| 0.1 to 1 |  | CCNc1ncnc2sc3c(=O)n(-c4ccc(OC)cc4)ncc3c12 [Compound 35A] |
| < 0.02 | 0.0078 | CN(C)c1ccnc2sc3c(=O)n(-c4ccc5ncsc5c4)ncc3c12 [Compound 9F] |
| 0.02 to 0.1 |  | CCNc1ccnc2sc3c(=O)n(-c4ccc(Cl)cc4)ncc3c12 [Compound 23K] |
| 0.1 to 1 |  | COc1ccc(-n2ncc3c(sc4nccc(N5CC(O)C5)c43)c2=O)cc1 [Compound 23P] |
| < 0.02 | 0.0045 | COc1ccc(-n2ncc3c(sc4nccc(N(C)C)c43)c2=O)cc1 [Compound 9B] |
| 0.02 to 0.1 |  | C#CCNc1ccnc2sc3c(=O)n(-c4ccc(C)cc4)ncc3c12 [Compound 23S] |
| 0.02 to 0.1 |  | COc1ccc(-n2ncc3c(sc4ncnc(NC5CC5)c43)c2=O)cc1 [Compound 35B] |
| 0.1 to 1 |  | COc1ccc(-n2ncc3c(sc4nccc(NCCO)c43)c2=O)cc1 [Compound 23F] |
| 0.02 to 0.1 |  | CN(C)c1ccnc2sc3c(=O)n(C4CCCCC4)ncc3c12 [Compound 9G] |
| 0.02 to 0.1 |  | O=c1c2sc3nccc(NCCO)c3c2cnn1-c1ccc(Cl)cc1 [Compound 23D] |
| < 0.02 | 0.0024 | CN(C)c1ccnc2sc3c(=O)n(-c4ccc(Cl)cc4)ncc3c12 [Compound 9C] |
